Experimental data taken from US7989446B2, “4-amino 5-cyanopyrimidine derivatives” (Otsuka Pharmaceutical Co., Ltd., priority 2004, dated 2011).

Legend:
[1] = system: Intraocular Pressure in Rabbit; test: Measuring test for intraocular pressure in rabbit; assay type: in vivo, Female New Zealand white rabbits; conditions: mean±standard error
Method in brief: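 Female New Zealand white rabbits received 50 μL eye drops of compound in 10 mM phosphate buffer pH 7.5 (suspension if insoluble) in one eye, vehicle as control. IOP measured by pneumatonometer under topical oxybuprocaine before and 0.5–6 h after dosing; reported as ΔIOP from pre-instillation, mmHg, mean±SE.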

[2] = biological target: T1, A1 receptor (Rattus norvegicus, UniProt P25099); test: Adenosine A1 agonistic action ([35S]GTPγS binding, rat cerebral cortex cell membrane); assay type: biochemical, male Wistar rats; conditions: percentage to 100% of CPA 1 μM
T1 construct: cerebral cortex of male Wistar rats (Charles River Japan, Inc) was extirpated; from tissue; host or cells: cerebral cortex of male Wistar rats, cell membrane preparation
T1 sequence (P25099 1-326): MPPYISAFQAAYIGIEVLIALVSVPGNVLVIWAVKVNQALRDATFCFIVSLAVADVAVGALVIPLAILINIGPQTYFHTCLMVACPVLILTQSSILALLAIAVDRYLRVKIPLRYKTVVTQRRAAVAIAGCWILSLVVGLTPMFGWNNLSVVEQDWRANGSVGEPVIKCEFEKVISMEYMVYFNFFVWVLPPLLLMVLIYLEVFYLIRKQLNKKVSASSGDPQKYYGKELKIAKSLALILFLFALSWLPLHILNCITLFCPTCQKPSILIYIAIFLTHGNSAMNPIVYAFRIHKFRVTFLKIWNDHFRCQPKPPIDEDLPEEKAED
Method: (2) Adenosine A1 Agonistic Action
The test was carried out as mentioned below with reference to the method disclosed in the literature (Shryock J. C. et al., Molecular Pharmacology, (1998) 53, 886-893; Ito H. et al., European Journal of Pharmacology, (1999) 365, 309-315). That is, cerebral cortex of male Wistar rats (Charles River Japan, Inc) was extirpated, thereto Tris buffer (50 mM Tris-HCl: pH 7.4) was added, it was homogenized, and then centrifuged (1000×g, 10 min). The supernatant was taken, and centrifuged (20,000×g, 20 min). After removing off the supernatant, the precipitate was suspended in Tris buffer, and recentrifuged (20,000×g, 20 min). After removing off the supernatant, the precipitate was suspended in Tris buffer including 2 units/mL ADA (adenosine deaminase) and reserved at −80° C. until used as a liquid preparation of cell membrane for the following tests.
The above liquid preparation of cell membrane in an amount corresponding to 10 μg of cell membrane was added to Tris-buffer comprising 5 mM of MgCl2, 1 mM of EDTA, 1 mM of dithiothreitol, 100 mM of NaCl, 0.01 mM of GDP (guanosine diphosphate), 5 mg/mL of BSA and 2 units/mL of ADA and the mixture was incubated at 25° C. for 30 minutes. Additionally, [^35S]GTPγS (Guanosine 5′-[γ-thio]triphosphate) (the final concentration: 0.4 nM) and the test compound of the given concentration (which was calculated based on the final concentration of the test compound) were added to the mixture and the resulting mixture was incubated at 25° C. for 45 minutes. The reaction mixture was filtrated through a glass fiber filter (unifilter-96 GF/B, Perkin Elmer Life Sciences) to quench reaction. The filter was washed 5 times with ice-cooled Tris-buffer including 5 mM MgCl2. The radioactivity of the filter was measured with Top count NXT(Perkin Elmer Life Sciences). The nonspecific binding was shown as the binding activity of [^35S]GTPγS in the presence of 0.01 mM GTPγS.
The activity (%, A1 agonistic action) of each test compound was calculated on the basis of the test result ([^35S]GTPγS binding activity) derived with 1 μM of CPA (N^6-Cyclopentyladenosine, Sigma, code C-8031) in control which was counted as 100%.

[3] = biological target: T2, adenosine A2a receptor (Human) (Homo sapiens, UniProt P29274); test: c-AMP generating action in cell expressing adenosine A2a receptor; assay type: cell-based; conditions: HEK293 cell expressing human A2a; 100% = c-AMP caused by 1 μM CGS-21680; read-out: A2a Agonistic Action (EC50)
T2 construct: host or cells: HEK293
T2 sequence (P29274 whole entry): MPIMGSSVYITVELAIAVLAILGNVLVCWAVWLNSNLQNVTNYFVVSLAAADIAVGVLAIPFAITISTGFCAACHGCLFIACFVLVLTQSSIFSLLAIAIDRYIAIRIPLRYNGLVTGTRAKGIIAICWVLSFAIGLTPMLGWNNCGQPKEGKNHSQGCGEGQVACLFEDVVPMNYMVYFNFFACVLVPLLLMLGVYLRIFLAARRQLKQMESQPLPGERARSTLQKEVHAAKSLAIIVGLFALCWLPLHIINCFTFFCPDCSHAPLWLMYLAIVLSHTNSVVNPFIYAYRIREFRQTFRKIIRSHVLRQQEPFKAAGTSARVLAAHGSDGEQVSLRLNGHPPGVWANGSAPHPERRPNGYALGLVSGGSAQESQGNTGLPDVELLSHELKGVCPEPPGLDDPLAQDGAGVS
Method in brief: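 HEK293 cells with human A2a receptor were preincubated 30 min at 37 °C with 0.1 mM IBMX and 2 U/mL adenosine deaminase. Compound was then added for 30 min and cAMP read by EIA. EC50 = concentration giving 50% of the cAMP produced by 1 μM CGS-21680.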

[4] = 0.01% ophthalmic solution, test group, 0.5 hr
[5] = 0.01% ophthalmic solution, test group, 1 hr
[6] = 0.01% ophthalmic solution, test group, 2 hr
[7] = 0.01% ophthalmic solution, test group, 3 hr
[8] = 0.01% ophthalmic solution, test group, 4 hr
[9] = 0.01% ophthalmic solution, test group, 6 hr
[10] = 0.03% ophthalmic solution, rabbit, instillation, 0.5 hr after instillation, difference from pre-instillation
[11] = 0.03% ophthalmic solution, rabbit, instillation, 1 hr after instillation, difference from pre-instillation
[12] = 0.03% ophthalmic solution, rabbit, instillation, 2 hr after instillation, difference from pre-instillation
[13] = 0.03% ophthalmic solution, rabbit, instillation, 3 hr after instillation, difference from pre-instillation
[14] = 0.03% ophthalmic solution, rabbit, instillation, 4 hr after instillation, difference from pre-instillation
[15] = 0.03% ophthalmic solution, rabbit, instillation, 6 hr after instillation, difference from pre-instillation

Structure (SMILES): CC(=O)Nc1ccc(-c2nc(SCc3cccc(CCC(=O)N4CCN(C)CC4)n3)nc(N)c2C#N)cc1 [Example 46, N-[4-(6-amino-5-cyano-2-{6-[3-(4-methylpiperazin-1-yl)-3-oxopropyl]pyridin-2-ylmethylsulfanyl}pyrimidin-4-yl)phenyl]-acetamide]
- ΔIOP (mmHg) [1, 4]: −0.6 ± 0.6 mmHg
- ΔIOP (mmHg) [1, 5]: −4.4 ± 0.8 mmHg
- ΔIOP (mmHg) [1, 6]: −4.9 ± 0.6 mmHg
- ΔIOP (mmHg) [1, 7]: −3.8 ± 0.7 mmHg
- ΔIOP (mmHg) [1, 8]: −2.9 ± 0.5 mmHg
- ΔIOP (mmHg) [1, 9]: −0.5 ± 0.6 mmHg
- A1 Agonistic Action (%) ([2]; test compound 10 nM): 4%
- A1 Agonistic Action (%) ([2]; test compound 100 nM): 26%
- A1 Agonistic Action (%) ([2]; test compound 1 μM): 45%
- EC50 [3]: 7.4 nM

Structure (SMILES): CC(=O)Nc1ccc(-c2nc(SCc3cccc(CCC(=O)N4CCN(CCN5CCCC5)CC4)n3)nc(N)c2C#N)cc1.Cl [Example 77, N-{4-[6-amino-5-cyano-2-(6-{3-oxo-3-[4-(2-pyrrolidin-1-ylethyl)piperazin-1-yl]propyl}pyridin-2-ylmethylsulfanyl)pyrimidin-4-yl]phenyl}acetamide hydrochloride]
- ΔIOP (mmHg) [1, 10]: −0.8 ± 0.5 mmHg
- ΔIOP (mmHg) [1, 11]: −5.0 ± 0.6 mmHg
- ΔIOP (mmHg) [1, 12]: −5.1 ± 0.4 mmHg
- ΔIOP (mmHg) [1, 13]: −4.4 ± 0.6 mmHg
- ΔIOP (mmHg) [1, 14]: −4.9 ± 0.7 mmHg
- ΔIOP (mmHg) [1, 15]: −3.1 ± 0.7 mmHg
- A1 Agonistic Action (%) ([2]; test compound 10 nM): 2%
- A1 Agonistic Action (%) ([2]; test compound 100 nM): 18%
- A1 Agonistic Action (%) ([2]; test compound 1 μM): 40%
- EC50 [3]: 9.5 nM

Structure (SMILES): CCN(CC)CCN1CCN(C(=O)CCc2cccc(CSc3nc(N)c(C#N)c(-c4ccc(NC(C)=O)cc4)n3)n2)CC1.Cl [Example 79, N-{4-[6-amino-5-cyano-2-(6-{3-[4-(2-diethylaminoethyl)piperazin-1-yl]-3-oxopropyl}pyridin-2-ylmethylsulfanyl)pyrimidin-4-yl]phenyl}acetamide hydrochloride]
- ΔIOP (mmHg) [1, 10]: 0.3 ± 0.9 mmHg
- ΔIOP (mmHg) [1, 11]: −3.9 ± 0.5 mmHg
- ΔIOP (mmHg) [1, 12]: −5.4 ± 0.7 mmHg
- ΔIOP (mmHg) [1, 13]: −5.8 ± 0.8 mmHg
- ΔIOP (mmHg) [1, 14]: −4.8 ± 0.7 mmHg
- ΔIOP (mmHg) [1, 15]: −2.8 ± 1.0 mmHg
- A1 Agonistic Action (%) ([2]; test compound 10 nM, hydrochloride): 0%
- A1 Agonistic Action (%) ([2]; test compound 100 nM, hydrochloride): 12%
- A1 Agonistic Action (%) ([2]; test compound 1 μM, hydrochloride): 45%
- EC50 [3]: 8.4 nM

Structure (SMILES): CCN(CC)CCN1CCN(C(=O)CCc2cccc(CSc3nc(N)c(C#N)c(-c4ccc(NC(C)=O)cc4)n3)n2)CC1.Cl [Example 75, N-{4-[6-amino-5-cyano-2-(6-{3-[4-(2-diethylaminoethyl)piperazin-1-yl]-3-oxopropyl}pyridin-2-ylmethylsulfanyl)pyrimidin-4-yl]phenyl}acetamide hydrochloride]
- ΔIOP (mmHg) [1, 4]: −0.8 ± 0.4 mmHg
- ΔIOP (mmHg) [1, 5]: −5.1 ± 0.5 mmHg
- ΔIOP (mmHg) [1, 6]: −5.3 ± 0.9 mmHg
- ΔIOP (mmHg) [1, 7]: −4.0 ± 0.9 mmHg
- ΔIOP (mmHg) [1, 8]: −4.3 ± 0.9 mmHg
- ΔIOP (mmHg) [1, 9]: −1.3 ± 0.4 mmHg
- A1 Agonistic Action (%) ([2]; test compound 10 nM): 3%
- A1 Agonistic Action (%) ([2]; test compound 100 nM): 22%
- A1 Agonistic Action (%) ([2]; test compound 1 μM): 50%
- EC50 [3]: 3 nM
